Reference: PubChem BioAssay (NCI)
Where “and” joins values, the source holds several entries; their conditions need not be identical. Equal entries are not always repeated.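 Following 48 hours of exposure in 96-well plates, responses at five concentrations were used to interpolate endpoints linearly. Here, GI50 denotes the concentration required for 50% inhibition of growth. TGI: total growth inhibition.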

Columns and labels:
Experiment in all cases: NCI tumour cell line growth inhibition, 48 h
786-0 renal = test system: 786-0 renal
A498 renal = test system: A498 renal
A549 NSCLC = test system: A549 NSCLC
ACHN renal = test system: ACHN renal
BT-549 breast = test system: BT-549 breast
CAKI-1 renal = test system: CAKI-1 renal
CCRF-CEM leukemia = test system: CCRF-CEM leukemia
COLO 205 colon = test system: COLO 205 colon
DU-145 prostate = test system: DU-145 prostate
EKVX NSCLC = test system: EKVX NSCLC
HCC-2998 colon = test system: HCC-2998 colon
HCT-116 colon = test system: HCT-116 colon
HCT-15 colon = test system: HCT-15 colon
HL-60(TB) leukemia = test system: HL-60(TB) leukemia
HOP-62 NSCLC = test system: HOP-62 NSCLC
HOP-92 NSCLC = test system: HOP-92 NSCLC
HS 578T breast = test system: HS 578T breast
HT29 colon = test system: HT29 colon
IGROV1 ovarian = test system: IGROV1 ovarian
K-562 leukemia = test system: K-562 leukemia
KM12 colon = test system: KM12 colon
LOX IMVI melanoma = test system: LOX IMVI melanoma
M14 melanoma = test system: M14 melanoma
MALME-3M melanoma = test system: MALME-3M melanoma
MCF7 breast = test system: MCF7 breast
MDA-MB-231 breast = test system: MDA-MB-231 breast
MDA-MB-435 = test system: MDA-MB-435
MOLT-4 leukemia = test system: MOLT-4 leukemia
NCI-H226 lung = test system: NCI-H226 lung
NCI-H23 lung = test system: NCI-H23 lung
NCI-H460 lung = test system: NCI-H460 lung
NCI-H522 lung = test system: NCI-H522 lung
NCI/ADR-RES ovarian = test system: NCI/ADR-RES ovarian
OVCAR-3 ovarian = test system: OVCAR-3 ovarian
OVCAR-4 ovarian = test system: OVCAR-4 ovarian
OVCAR-5 ovarian = test system: OVCAR-5 ovarian
OVCAR-8 ovarian = test system: OVCAR-8 ovarian
PC-3 prostate = test system: PC-3 prostate
RPMI-8226 leukemia = test system: RPMI-8226 leukemia
RXF 393 renal = test system: RXF 393 renal
SF-268 CNS = test system: SF-268 CNS
SF-295 CNS = test system: SF-295 CNS
SF-539 CNS = test system: SF-539 CNS
SK-MEL-2 melanoma = test system: SK-MEL-2 melanoma
SK-MEL-28 melanoma = test system: SK-MEL-28 melanoma
SK-MEL-5 melanoma = test system: SK-MEL-5 melanoma
SK-OV-3 ovarian = test system: SK-OV-3 ovarian
SN12C renal = test system: SN12C renal
SNB-19 CNS = test system: SNB-19 CNS
SNB-75 CNS = test system: SNB-75 CNS
SR leukemia = test system: SR leukemia
SW-620 colon = test system: SW-620 colon
T-47D breast = test system: T-47D breast
TK-10 renal = test system: TK-10 renal
U251 CNS = test system: U251 CNS
UACC-257 melanoma = test system: UACC-257 melanoma
UACC-62 melanoma = test system: UACC-62 melanoma
UO-31 renal = test system: UO-31 renal

`Nc1ncnc2c1c(-c1cccc(OCc3ccccc3)c1)cn2C1CC(CN2CCC2)C1` (stereo unspecified) was tested, and the GI50 (786-0 renal) was 1.92 µM and 2.14 µM, the TGI (786-0 renal) was 3.98 µM and 4.83 µM and the GI50 (A498 renal) was 1.74 µM and 1.24 µM. The TGI (A498 renal) was 5.59 µM and 6.85 µM, the GI50 (A549 NSCLC) was 1.01 µM and 2.91 µM and the TGI (A549 NSCLC) was 7.55 µM and > 10 µM. For the same compound, the GI50 (ACHN renal) was 3.87 µM and 7.43 µM, the TGI (ACHN renal) was 15.3 µM and > 10 µM and the GI50 (BT-549 breast) was 2.57 µM and 5.84 µM. The TGI (BT-549 breast) was 6.91 µM and > 10 µM, the GI50 (CAKI-1 renal) was 2.56 µM and 2.44 µM and the TGI (CAKI-1 renal) was 11.4 µM and > 10 µM. For the same compound, the GI50 (CCRF-CEM leukemia) was 2.58 µM and 2.97 µM, the TGI (CCRF-CEM leukemia) was 7.99 µM and > 10 µM and the GI50 (COLO 205 colon) was 0.262 µM and 0.245 µM. The TGI (COLO 205 colon) was 1.55 µM and 1.29 µM, the GI50 (DU-145 prostate) was 4.61 µM and 7.63 µM and the TGI (DU-145 prostate) was 17.7 µM and > 10 µM. For the same compound, the GI50 (EKVX NSCLC) was 7.88 µM, the TGI (EKVX NSCLC) was greater than 10 µM and the GI50 (HCC-2998 colon) was 2.26 µM and 5.4 µM. The TGI (HCC-2998 colon) was 10.6 µM and > 10 µM, the GI50 (HCT-116 colon) was 1.85 µM and 2.58 µM and the TGI (HCT-116 colon) was 11.5 µM and > 10 µM. For the same compound, the GI50 (HCT-15 colon) was 1.93 µM and 2.39 µM, the TGI (HCT-15 colon) was 12.6 µM and > 10 µM and the GI50 (HL-60(TB) leukemia) was 0.112 µM and 0.0969 µM. The TGI (HL-60(TB) leukemia) was 2.08 µM and 2.04 µM, the GI50 (HOP-62 NSCLC) was 1.88 µM and 3.79 µM and the TGI (HOP-62 NSCLC) was 8.33 µM and > 10 µM. The GI50 (HOP-92 NSCLC) was 0.0457 µM and 0.266 µM, the TGI (HOP-92 NSCLC) was 0.837 µM and 3.82 µM and the GI50 (HS 578T breast) was 2.97 µM and 1.57 µM. For the same compound, the TGI (HS 578T breast) was 24.8 µM and 5.8 µM, the GI50 (HT29 colon) was 0.0575 µM and 0.173 µM and the TGI (HT29 colon) was 1.84 µM and 2.05 µM. For the same compound, the GI50 (IGROV1 ovarian) was 3.32 µM and 4.84 µM, the TGI (IGROV1 ovarian) was 12.2 µM and > 10 µM and the GI50 (K-562 leukemia) was 1.71 µM and 2.08 µM. The TGI (K-562 leukemia) was 4.43 µM and 6.32 µM, the GI50 (KM12 colon) was 2.72 µM and 3.07 µM and the TGI (KM12 colon) was 8.97 µM and > 10 µM. For the same compound, the GI50 (LOX IMVI melanoma) was 1.51 µM and 1.41 µM, the TGI (LOX IMVI melanoma) was 3.02 µM and 3 µM and the GI50 (M14 melanoma) was 1.59 µM and 1.65 µM. For the same compound, the TGI (M14 melanoma) was 3.28 µM and 3.55 µM, the GI50 (MALME-3M melanoma) was 0.433 µM and 1.33 µM and the TGI (MALME-3M melanoma) was 1.96 µM and 3.04 µM. The GI50 (MCF7 breast) was 0.092 µM and 0.369 µM, the TGI (MCF7 breast) was 3.74 µM and 5.55 µM and the GI50 (MDA-MB-231 breast) was 2.12 µM and 3.82 µM. The TGI (MDA-MB-231 breast) was 6.14 µM and > 10 µM, the GI50 (MDA-MB-435) was 1.21 µM and 1.49 µM and the TGI (MDA-MB-435) was 3.12 µM and 6.89 µM. For the same compound, the GI50 (MOLT-4 leukemia) was 2.82 µM and 2.56 µM, the TGI (MOLT-4 leukemia) was 8.59 µM and > 10 µM and the GI50 (NCI-H226 lung) was 2.03 µM and 2.71 µM. The TGI (NCI-H226 lung) was 16 µM and > 10 µM, the GI50 (NCI-H23 lung) was 4.62 µM and 7.36 µM and the TGI (NCI-H23 lung) was 21.1 µM and > 10 µM. The GI50 (NCI-H460 lung) was 2.41 µM and 2.87 µM, the TGI (NCI-H460 lung) was 15.4 µM and > 10 µM and the GI50 (NCI-H522 lung) was 2.18 µM and 7.48 µM. The TGI (NCI-H522 lung) was 5.92 µM and > 10 µM, the GI50 (NCI/ADR-RES ovarian) was 6.47 µM and 8.96 µM and the TGI (NCI/ADR-RES ovarian) was 22.6 µM and > 10 µM. The GI50 (OVCAR-3 ovarian) was 6.26 µM and 7.96 µM, the TGI (OVCAR-3 ovarian) was 19.3 µM and > 10 µM and the GI50 (OVCAR-4 ovarian) was 3.49 µM. For the same compound, the TGI (OVCAR-4 ovarian) was 15.3 µM and > 10 µM, the GI50 (OVCAR-5 ovarian) was 0.844 µM and 2.48 µM and the TGI (OVCAR-5 ovarian) was 14.9 µM and > 10 µM. For the same compound, the GI50 (OVCAR-8 ovarian) was 5.92 µM and 8.46 µM, the TGI (OVCAR-8 ovarian) was 20 µM and > 10 µM and the GI50 (PC-3 prostate) was 2.94 µM and 5.42 µM. The TGI (PC-3 prostate) was 13.9 µM and > 10 µM, the GI50 (RPMI-8226 leukemia) was 1.9 µM and 2.18 µM and the TGI (RPMI-8226 leukemia) was 5.41 µM and 5.31 µM. The GI50 (RXF 393 renal) was 1.71 µM and 2 µM, the TGI (RXF 393 renal) was 4.27 µM and 7.26 µM and the GI50 (SF-268 CNS) was 2.24 µM and 3.68 µM. For the same compound, the TGI (SF-268 CNS) was 6.54 µM and > 10 µM, the GI50 (SF-295 CNS) was 1.89 µM and 2.36 µM and the TGI (SF-295 CNS) was 3.93 µM and 5.63 µM. For the same compound, the GI50 (SF-539 CNS) was 1.65 µM and 1.95 µM, the TGI (SF-539 CNS) was 3.18 µM and 5.16 µM and the GI50 (SK-MEL-2 melanoma) was 1.58 µM and 2.21 µM. The TGI (SK-MEL-2 melanoma) was 3.36 µM and 6.1 µM, the GI50 (SK-MEL-28 melanoma) was 1.33 µM and 1.63 µM and the TGI (SK-MEL-28 melanoma) was 2.78 µM and 3.52 µM. The GI50 (SK-MEL-5 melanoma) was 1.31 µM and 1.42 µM, the TGI (SK-MEL-5 melanoma) was 2.67 µM and 2.8 µM and the GI50 (SK-OV-3 ovarian) was 3.99 µM. For the same compound, the TGI (SK-OV-3 ovarian) was 11.3 µM and > 10 µM, the GI50 (SN12C renal) was 4.59 µM and 5.75 µM and the TGI (SN12C renal) was 18 µM and > 10 µM. For the same compound, the GI50 (SNB-19 CNS) was 6.37 µM and 7.05 µM, the TGI (SNB-19 CNS) was 20.5 µM and > 10 µM and the GI50 (SNB-75 CNS) was 1.7 µM and 2.29 µM. The TGI (SNB-75 CNS) was 4.86 µM and 8.46 µM, the GI50 (SR leukemia) was 2.22 µM and 1.69 µM and the TGI (SR leukemia) was 6.08 µM and 4.18 µM. For the same compound, the GI50 (SW-620 colon) was 1.29 µM and 1.56 µM, the TGI (SW-620 colon) was 6.47 µM and > 10 µM and the GI50 (T-47D breast) was 2.84 µM and 2.79 µM. The TGI (T-47D breast) was 12.1 µM and > 10 µM, the GI50 (TK-10 renal) was 2.02 µM and 2.85 µM and the TGI (TK-10 renal) was 7.74 µM and > 10 µM. The GI50 (U251 CNS) was 1.82 µM and 3 µM, the TGI (U251 CNS) was 3.94 µM and > 10 µM and the GI50 (UACC-257 melanoma) was 0.559 µM and 1.13 µM. The TGI (UACC-257 melanoma) was 2.1 µM and 2.41 µM, the GI50 (UACC-62 melanoma) was 1.74 µM and 1.5 µM and the TGI (UACC-62 melanoma) was 3.58 µM and 3.33 µM. The GI50 (UO-31 renal) was 1.31 µM and 1.75 µM and the TGI (UO-31 renal) was 4.34 µM and 9.79 µM.
